{"source": "patent US11939330B1", "about": "“Pyrido[3,4-b]indole-6-carboxylic acid compounds as CK2 inhibitors” (KING FAISAL UNIVERSITY, priority 2023, dated 2024)", "key": {"[1]": {"system": "PC3 (prostate)", "experiment": "In vitro cytotoxic activity (MTT) assay, PC3", "assay_type": "cell-based", "settings": "Homo sapiens, Prostate cell; PC3 (prostate) cells, exposed for 96 hours; read-out: IC50, concentration of compound eliciting a 50% inhibition of cell proliferation", "method": "(§1) Compounds 1-12 were screened for their in vitro cytotoxic activity utilizing a 3-(4,5-dimethyl-thiazol-2-yl)-2,5-diphenyltetrazolium bromide (MTT) assay against selected cancer human cell lines consisting of PC3 (prostate), HCT116 (colon), A375 (melanoma), H1299 (lung), MIAPaCa-2 (pancreas), HL60 (leukemia), MCF7 (breast), MDA-MB-231 (breast) (T. Mosmann, J. Immunol. Meth., 1983, 65, 55-63). The cells were cultured at 37° C. in RMPI1640 medium supplemented with 10% fetal bovine serum, 50 IU/mL penicillin, and 50 μg/mL streptomycin in a 5% CO2 incubator. All cells were sub-cultured 3 times/week by trypsinisation. Viable cells were seeded and allowed to adhere for 12 h before a test drug was added in 96-well plates at an initial density of 1.0×10^5 cells/mL. Tumour cell lines were separately exposed to various concentrations of the tested compounds followed by incubation at a temperature of 37° C. during 96 h inside a medium of fresh RMPI 1640. Cells were subsequently incubated at 37° C. using MTT at 0.5 mg/mL during 4 h. After removal of supernatant, formazan crystals were dissolved in isopropanol and the optical density was measured at 570 nm. CX-4945 was used as a positive control."}, "[2]": {"system": "HCT116 (colon)", "experiment": "In vitro cytotoxic activity (MTT) assay, HCT116", "assay_type": "cell-based", "settings": "Homo sapiens, HCT-116; HCT116 (colon) cells, exposed for 96 hours; read-out: IC50, concentration of compound eliciting a 50% inhibition of cell proliferation", "method": "as §1"}, "[3]": {"system": "A375 (melanoma)", "experiment": "In vitro cytotoxic activity (MTT) assay, A375", "assay_type": "cell-based", "settings": "Homo sapiens, A-375; A375 (melanoma) cells, exposed for 96 hours; read-out: IC50, concentration of compound eliciting a 50% inhibition of cell proliferation", "method": "as §1"}, "[4]": {"system": "H1299 (lung)", "experiment": "In vitro cytotoxic activity (MTT) assay, H1299", "assay_type": "cell-based", "settings": "Homo sapiens, NCI-H1299; H1299 (lung) cells, exposed for 96 hours; read-out: IC50, concentration of compound eliciting a 50% inhibition of cell proliferation", "method": "as §1"}, "[5]": {"system": "MIAPaCa-2 (pancreas)", "experiment": "In vitro cytotoxic activity (MTT) assay, MIAPaCa-2", "assay_type": "cell-based", "settings": "Homo sapiens, MIA PaCa-2; MIAPaCa-2 (pancreas) cells, exposed for 96 hours; read-out: IC50, concentration of compound eliciting a 50% inhibition of cell proliferation", "method": "as §1"}, "[6]": {"system": "HL60 (leukemia)", "experiment": "In vitro cytotoxic activity (MTT) assay, HL60", "assay_type": "cell-based", "settings": "Homo sapiens, HL-60; HL60 (leukemia) cells, exposed for 96 hours; read-out: IC50, concentration of compound eliciting a 50% inhibition of cell proliferation", "method": "as §1"}, "[7]": {"system": "MCF7 (breast)", "experiment": "In vitro cytotoxic activity (MTT) assay, MCF7", "assay_type": "cell-based", "settings": "Homo sapiens; MCF7 (breast) cells, exposed for 96 hours; read-out: IC50, concentration of compound eliciting a 50% inhibition of cell proliferation", "method": "as §1"}, "[8]": {"system": "MDA-MB-231 (breast)", "experiment": "In vitro cytotoxic activity (MTT) assay, MDA-MB-231", "assay_type": "cell-based", "settings": "Homo sapiens; MDA-MB-231 (breast) cells, exposed for 96 hours; read-out: IC50, concentration of compound eliciting a 50% inhibition of cell proliferation", "method": "as §1"}, "[9]": {"target": "T1, recombinant human CK2 (Homo sapiens, UniProt P68400)", "T1 construct": "purchased Millipore", "T1 sequence (P68400 whole entry)": "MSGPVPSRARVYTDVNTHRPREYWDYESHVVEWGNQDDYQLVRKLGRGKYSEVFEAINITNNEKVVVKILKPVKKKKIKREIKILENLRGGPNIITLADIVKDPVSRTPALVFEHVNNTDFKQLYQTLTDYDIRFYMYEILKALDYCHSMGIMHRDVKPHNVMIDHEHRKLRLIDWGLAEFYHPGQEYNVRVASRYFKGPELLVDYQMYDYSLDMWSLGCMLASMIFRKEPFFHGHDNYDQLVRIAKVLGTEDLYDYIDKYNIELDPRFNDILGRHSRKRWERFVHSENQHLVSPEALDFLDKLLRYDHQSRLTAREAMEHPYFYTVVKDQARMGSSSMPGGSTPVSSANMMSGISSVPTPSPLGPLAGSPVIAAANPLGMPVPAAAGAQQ", "T1 sequence (P67870 whole entry partner)": "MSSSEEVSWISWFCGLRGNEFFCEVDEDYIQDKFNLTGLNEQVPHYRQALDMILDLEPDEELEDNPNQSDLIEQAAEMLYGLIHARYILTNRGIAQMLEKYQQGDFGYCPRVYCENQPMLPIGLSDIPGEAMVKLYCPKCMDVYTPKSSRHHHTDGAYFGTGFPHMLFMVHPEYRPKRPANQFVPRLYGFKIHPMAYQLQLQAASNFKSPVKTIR", "experiment": "CK2 Kinase Assay (33P-ATP, substrate peptide RRRDDDSDDD)", "assay_type": "biochemical", "settings": "final ATP concentration 15 μM, 10 min at 30° C.; read-out: protein kinase CK2 activity IC50", "method": "CK2 Kinase Assay was conducted using the protocol as described in Pierre F. et al; J. Med. Chem. 2011, 54, 635-654. The tested compounds in aqueous solution were added at a volume of 10 μL to a reaction mixture comprising 10 μL of assay dilution buffer (ADB; 20 mM MOPS, pH 7.2, 25 mM β-glycerol phosphate, 5 mM EGTA, 1 mM sodium orthovanadate, and 1 mM dithiothreitol), 10 μL of substrate peptide (RRRDDDSDDD, dissolved in ADB at a concentration of 1 mM), 10 μL of recombinant human CK2 (RROP-holoenzyme, 25 ng dissolved in ADB; Millipore). Reactions were initiated by the addition of 10 μL of ATP solution (90% 75 mMMgCl2, 75 μM ATP (final ATP concentration:15 μM) dissolved in ADB; 10% [7-33P] ATP (stock 1 mCi/100 L; 3000 Ci/mmol (Perkin-Elmer) and maintained for 10 min at 30° C. The reactions were quenched with 100 μL of 0.75% phosphoric acid and then transferred to and filtered through a phosphor cellulose filter plate (Millipore). After washing each well five times with 0.75% phosphoric acid, the plate was dried under vacuum for 5 min and, following the addition of 15 μL of scintillation fluid to each well, the residual radioactivity was measured using a Wallac […] counter. The IC50 values were derived from eight concentrations of test inhibitors."}}, "note": "pIC50: −log10 of the molar value.", "data": [{"smiles": "O=C(O)c1ccc2c(c1)c1ccncc1n2C(=O)c1cccc(Cl)c1", "note": "[Compound 7, 9-(3-chlorobenzoyl)-9H-pyrido[3,4-b]indole-6-carboxylic acid]", "values": [{"measurement": "pIC50", "setting": "[1]", "value": 5.80}, {"measurement": "pIC50", "setting": "[2]", "value": 5.62}, {"measurement": "pIC50", "setting": "[3]", "value": 5.41}, {"measurement": "pIC50", "setting": "[4]", "value": 5.82}, {"measurement": "pIC50", "setting": "[5]", "value": 5.72}, {"measurement": "pIC50", "setting": "[6]", "value": 5.74}, {"measurement": "pIC50", "setting": "[7]", "value": 5.33}, {"measurement": "pIC50", "setting": "[8]", "value": 5.41}, {"measurement": "pIC50", "setting": "[9]", "value": 7.29}]}]}
